# Reference: patent US20240300904A1, “PYRIDAZINONES FOR THE TREATMENT OR PREVENTION OF HYPERTENSION” (UNIVERSITETET I OSLO, priority 2021, published 2024)
# Tests used:
# [1] = biological target: T1, human (h) natriuretic peptide receptor A (hNPR-A) (Homo sapiens, UniProt P16066); test: AlphaScreen assay for cGMP: BNP-mediated NPR-A activity (cGMP production); assay type: cell-based; conditions: conc. response of compound + 0.1 nM BNP; for EC50: NPR-A-expressing HEK293 cells, read-out: -LogEC50 (compound) (converted); for Emax: percentage of maximum BNP-mediated cGMP production, read-out: Max Response
# T1 construct: expressed in transfected cells
# T1 sequence (P16066 33-1061): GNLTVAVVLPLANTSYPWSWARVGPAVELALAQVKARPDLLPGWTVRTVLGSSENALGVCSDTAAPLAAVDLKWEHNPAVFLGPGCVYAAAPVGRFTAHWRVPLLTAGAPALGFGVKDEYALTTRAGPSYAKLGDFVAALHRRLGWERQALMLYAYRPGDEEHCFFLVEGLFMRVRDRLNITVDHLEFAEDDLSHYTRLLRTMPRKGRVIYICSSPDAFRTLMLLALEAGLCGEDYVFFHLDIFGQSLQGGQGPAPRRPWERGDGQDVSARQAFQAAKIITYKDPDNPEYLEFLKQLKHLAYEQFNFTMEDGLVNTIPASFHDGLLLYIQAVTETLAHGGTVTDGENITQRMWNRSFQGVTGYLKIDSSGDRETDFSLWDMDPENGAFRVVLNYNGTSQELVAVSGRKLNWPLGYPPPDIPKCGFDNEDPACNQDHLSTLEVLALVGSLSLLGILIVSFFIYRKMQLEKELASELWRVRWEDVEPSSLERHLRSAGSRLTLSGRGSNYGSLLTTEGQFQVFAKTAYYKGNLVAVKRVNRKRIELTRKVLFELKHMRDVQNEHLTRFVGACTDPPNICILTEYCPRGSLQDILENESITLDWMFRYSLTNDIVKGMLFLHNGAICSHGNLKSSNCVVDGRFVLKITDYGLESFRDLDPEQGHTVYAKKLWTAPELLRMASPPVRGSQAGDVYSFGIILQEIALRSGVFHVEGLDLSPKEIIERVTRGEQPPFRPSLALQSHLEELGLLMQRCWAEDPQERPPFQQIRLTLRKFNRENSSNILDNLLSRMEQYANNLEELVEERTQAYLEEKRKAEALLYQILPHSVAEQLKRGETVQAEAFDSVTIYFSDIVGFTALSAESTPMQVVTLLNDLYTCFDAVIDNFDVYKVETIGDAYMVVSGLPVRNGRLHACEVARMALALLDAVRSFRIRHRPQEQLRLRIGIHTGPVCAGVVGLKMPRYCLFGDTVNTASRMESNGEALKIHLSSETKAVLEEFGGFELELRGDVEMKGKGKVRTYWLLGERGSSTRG
# T1 sequence (P16860 103-134 partner limits assumed): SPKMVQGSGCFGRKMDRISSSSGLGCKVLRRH
# Description: (§1) QBIHEK293A cells stably transfected with human (h) natriuretic peptide receptor A (hNPR-A) and hNPR-B were made as described in Bach et al., Naunyn Schmiedebergs Arch. Pharmacol. 2014; 387:5-14. Cells were grown in DMEM (Dulbecco's Modified Eagle's Medium, Gibco®, ThermoFischer Scientific) supplemented with 10% Fetal Bovine Serum (FBS), 100 U/ml penicillin, 0.1 mg/ml streptomycin, and 0.4 mg/ml G418 (geneticin) as selection antibiotic.
# (§2) The AlphaScreen assay for cGMP (Perkin Elmer) was performed as described in Bach et al. (see above). NPR-A and NPR-B expressing HEK293 cells were split the day before the experiment and harvested using an EDTA solution (Versene, Invitrogen, ThermoFischer Scientific). A final concentration of 6000 cells/well was re-suspended in stimulation buffer (5 mM HEPES in HBSS at pH 7.4, 0.1% BSA) with IBMX (0.7 mM final). Compounds were dissolved in stimulation buffer and added to wells in increasing concentrations. Cells were incubated with the indicated compounds 20 minutes before addition of agonists (human BNP, human CNP or human proBNP) in various concentrations. Cells were stimulated for 20 minutes with agonist before the reactions were stopped (i.e. cells lysed) by adding the AlphaScreen Acceptor bead mix (Acceptor beads-anti-cGMP antibody and 0.5% Tween-20 in 5 mM HEPES buffer at pH 7.4). After 1 hour incubation, the Donor bead mix (Donor beads, biotinylated cGMP, 0.5% Tween-20 in 5 mM HEPES buffer at pH 7.4) was added (40 μl total volume) and incubation continued for 2 hours. The luminescence signals were analyzed quantitatively by reading of the plates on the EnVision® Multilabel Plate Reader (Perkin Elmer) using AlphaScreen emission 570 nm filter.
# NPR-A = biological target: T2, NPR-A (Homo sapiens, UniProt P16066); test: Whole-cell binding assays with 125I-ANP in intact NPR-A expressing HEK293 cells
# T2 construct: expressed in transfected cells; host or cells: HEK293 cells expressing NPR-A
# T2 sequence (P16066 33-1061): T1 sequence (P16066 33-1061)
# Description: as §1
# Binding assays were carried out in intact NPR-A expressing HEK293 cells as described in Dickey et al., J Biol Chem. 2009; 284: 19196-202.
# HeLa cells = test: MTT assay (cytotoxicity); assay type: cell-based; conditions: 24 and 48 h, compared with compounds 3 and 11
# Description: Cells were incubated for 24 and 48 h with increasing concentrations of the indicated compound. The data represent formazan formation (absorbance) as a percentage of the negative control (1% DMSO).
# The MTT (3-(4,5-dimethylthiazol-2-yl)-2,5-diphenyltetrazolium bromide) tetrazolium reduction assay was used to measure cytotoxicity of the compounds in vitro. Viable cells with active metabolism convert MTT into a purple colored formazan product with an absorbance maximum near 570 nm. HeLa cells were plated in 96-well plates in culture medium (DMEM (Dulbecco's Modified Eagle's Medium, Gibco®, ThermoFischer Scientific) supplemented with 10% Fetal Bovine Serum (FBS), 100 U/ml penicillin, 0.1 mg/ml streptomycin) the day before experiments. Cells were incubated for 24 or 48 h at 37° C. with increasing concentrations of each compound (in 1% DMSO). 1% DMSO and 20 mM H2O2 in culture medium were used as negative and positive control, respectively. MTT solution at a final concentration of 0.45 mg/ml was added to the wells and cells incubated for 1 to 4 hours at 37° C. Solubilization solution (40% (vol/vol) dimethylformamide (DMF), 2% (vol/vol) glacial acetic acid and 16% (wt/vol) sodium dodecyl sulfate (SDS)) was added to each well to dissolve formazan crystals. Absorbance was measured at 570 nm.
# [2] = biological target: T3, human (h) natriuretic peptide receptor A (hNPR-A) (Homo sapiens, UniProt P16066); test: AlphaScreen assay for cGMP: proBNP-mediated NPR-A activity; assay type: cell-based; conditions: conc. response of compound + 2 nM proBNP
# T3 construct: expressed in transfected cells
# T3 sequence (P16066 33-1061): T1 sequence (P16066 33-1061)
# T3 sequence (P16860 27-134 partner): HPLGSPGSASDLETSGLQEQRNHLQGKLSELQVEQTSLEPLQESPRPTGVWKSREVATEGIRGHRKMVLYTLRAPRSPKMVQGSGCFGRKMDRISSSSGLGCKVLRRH
# Description: as §1
# as §2, with “Cells were stimulated for 20 minutes with agonist before the reactions were stopped (i.e. cells lysed) by adding the AlphaScreen Acceptor bead mix (Acceptor beads-anti-cGMP antibody and 0.5% Tween-20 in 5 mM HEPES buffer at pH 7.4). After 1 hour incubation, the Donor bead mix (Donor beads, biotinylated cGMP, 0.5% Tween-20 in 5 mM HEPES buffer at pH 7.4) was added (40 μl total volume) and incubation continued for 2 hours.” left out
SMILES,EC50 [1],Emax [1],further results
"O=C(Cn1ncc(Cl)c(Cl)c1=O)NCCc1cnn(-c2ccccc2)c1 [Compound 16, 2-(4,5-dichloro-6-oxopyridazin-1(6H)-yl)-N-(2-(1-phenyl-1H-pyrazol-4-yl)ethyl)acetamide]",794 nM,41%,–
O=C(Cn1ncc(Cl)c(Cl)c1=O)c1ccc2c(c1)CCCC2 [Compound 9],1260 nM,27.7%,–
"O=C(Cn1ncc(Cl)c(Cl)c1=O)NCc1cnn(-c2ccccc2)c1 [Compound 20, 2-(4,5-dichloro-6-oxopyridazin-1(6H)-yl)-N-((1-phenyl-1H-pyrazol-4-yl)methyl)acetamide]",6310 nM,49.4%,–
O=C(Cn1ncc(Br)c(Br)c1=O)c1ccc(Cl)cc1 [Compound 10],79.4 nM,37%,–
"CC(C)c1ccc(CCNC(=O)Cn2ncc(Cl)c(Cl)c2=O)cc1 [Compound 15, 2-(4,5-dichloro-6-oxopyridazin-1(6H)-yl)-N-(4-isopropylphenethyl)acetamide]",794 nM,27.8%,–
"O=C(Cn1ncc(Cl)c(Cl)c1=O)Nc1cnn(-c2ccccc2)c1 [Compound 19, 2-(4,5-dichloro-6-oxopyridazin-1(6H)-yl)-N-(1-phenyl-1H-pyrazol-4-yl)acetamide]",1000 nM,45.7%,–
"O=C(Cn1ncc(Cl)c(Cl)c1=O)NC1CC1c1cnn(-c2ccccc2)c1 (racemic) [Compound 18, rac-2-(4,5-dichloro-6-oxopyridazin-1(6H)-yl)-N-((1R,2S)-2-(1-phenyl-1H-pyrazol-4-yl)cyclopropyl)acetamide]",200 nM,30.7%,–
"O=C(Cn1ncc(Cl)c(Cl)c1=O)NCCc1c(Cl)cccc1Cl [Compound 17, 2-(4,5-dichloro-6-oxopyridazin-1(6H)-yl)-N-(2,6-dichlorophenethyl)acetamide]",794 nM,39.4%,–
O=C(Cn1ncc(Cl)c(Cl)c1=O)C12CC3CC(CC(C3)C1)C2 [Compound 1],2510 nM,53.1%,–
"O=C(Cn1ncc(Cl)cc1=O)c1ccc(Cl)s1 [Compound 8, 5-chloro-2-(2-(5-chlorothiophen-2-yl)-2-oxoethyl) pyridazin-3(2H)-one]",1580 nM,27%,–
"O=C(Cn1ncc(Cl)c(Cl)c1=O)c1ccc(Cl)cc1Cl [Compound 11, 4,5-dichloro-2-[2-(2,4-dichlorophenyl)-2-oxo-ethyl]pyridazin-3-one]",200 nM,42.5%,–

# The next lines start with results.
EC50 [1],Emax [1],SMILES,further results
100 nM,41%,"Cc1cc(Cl)ccc1C(=O)Cn1ncc(Cl)c(Cl)c1=O [Compound 13, 4,5-dichloro-2-[2-(4-chloro-2-methyl-phenyl)-2-oxo-ethyl]pyridazin-3-one]",–
2510 nM,45.4%,"Cc1cc(C(=O)Cn2ncc(Cl)c(Cl)c2=O)ccc1Cl [Compound 14, 4,5-dichloro-2-[2-(4-chloro-3-methyl-phenyl)-2-oxo-ethyl]pyridazin-3-one]",–
251 nM,33.4%,O=C(Cn1ncc(Cl)c(Cl)c1=O)c1ccc(Cl)s1 [Compound 7],–
2510 nM,44.1%,"N#Cc1ccc(C(=O)Cn2ncc(Cl)c(Cl)c2=O)cc1 [Compound 6, 4-(2-(4,5-dichloro-6-oxopyridazin-1(6H)-yl)acetyl) benzonitrile]",–
12600 nM,48.6%,"O=C(Cn1nccc(Cl)c1=O)c1ccc(Cl)cc1 [Compound 3, 4-chloro-2-(2-(4-chlorophenyl)-2-oxoethyl)pyridazin-3(2H)-one]",–
251 nM,45.3%,O=C(Cn1ncc(Cl)c(Cl)c1=O)c1ccc(Cl)cc1 [Compound 2],"Emax (NPR-A; compound + 50 pM 125I-ANP, response of 50 pM 125I-ANP defined as 100%, read-out: Max Response): 173%; EC50 (NPR-A; conc. response compound + 50 pM 125I-ANP, NPR-A HEK293 cells, read-out: -LogEC50 (compound) (converted)): 2 nM; Fold change in Bmax (NPR-A; saturation binding, conc. response 125I-ANP + 10 μM compound): 2.3; toxicity in MTT assay relative to corresponding dichloro compounds (HeLa cells): lower toxicity; EC50 ([2]; NPR-A-expressing HEK293 cells, read-out: -LOGEC50 (compound) (converted)): 1000 nM; Emax ([2]; percentage of maximum proBNP-mediated cGMP production, read-out: Max response): 99%"
5010 nM,35.2%,"O=C(Cn1ncc(Cl)cc1=O)c1ccc(Cl)cc1 [Compound 4, 5-chloro-2-(2-(4-chlorophenyl)-2-oxoethyl)pyridazin-3(2H)-one]",–
398 nM,44.3%,"O=C(Cn1ncc(Cl)c(Cl)c1=O)c1ccc(Cl)c(F)c1 [Compound 12, 4,5-dichloro-2-[2-(4-chloro-3-fluoro-phenyl)-2-oxo-ethyl]pyridazin-3-one]",–
3980 nM,38.6%,"COc1ccc(C(=O)Cn2ncc(Cl)c(Cl)c2=O)cc1 [Compound 5, 4,5-dichloro-2-(2-(4-methoxyphenyl)-2-oxoethyl) pyridazin-3(2H)-one]",–
